Results reported in ChEMBL document CHEMBL1201862, “PubChem BioAssay data set” (2004).
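Each compound was tested at five concentrations against cells in 96-well plates for 48 hours. Abbreviation: GI50, concentration required for 50% inhibition of growth.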 Activity calls are given as the source filed them. Cut-off read from the data, not from the text of the source: active = GI50 up to about 1.1 µM and inactive = higher.

Tests used:
Assay in all cases: NCI-60 cell line screen, 48 h
[1] = system: SF-295
[2] = system: LOX IMVI
[3] = system: OVCAR-8
[4] = system: RPMI-8226
[5] = system: IGROV-1
[6] = system: UACC-62
[7] = system: HCT-15
[8] = system: SK-MEL-28
[9] = system: CCRF-CEM
[10] = system: UO-31
[11] = system: HCC 2998
[12] = system: TK-10
[13] = system: K562
[14] = system: U-251
[15] = system: UACC-257
[16] = system: OVCAR-4
[17] = system: OVCAR-5
[18] = system: SR

Row | SMILES | GI50 [1] | GI50 [2] | GI50 [3] | GI50 [4] | GI50 [5] | GI50 [6] | GI50 [7] [µM] | GI50 [8] | GI50 [9] | GI50 [10] | GI50 [11] | GI50 [12] | GI50 [13] | GI50 [14] | GI50 [15] | GI50 [16] | GI50 [17] | GI50 [18]
1 | COC(=O)C1=C(C(=O)OC)C2=S(SC3=C2CCCC3)S1 (centres undefined) | 46.1 µM (inactive) | 2.79 µM (inactive) | 12.9 µM (inactive) | 3.26 µM (inactive) | 85.7 µM (inactive) | 26 µM (inactive) | 13.3 | 29.7 µM (inactive) | 2.98 µM (inactive) | 68.1 µM (inactive) | > 100 µM (inactive) | 30.1 µM (inactive) | 4.35 µM (inactive) | 19.6 µM (inactive) | 37.2 µM (inactive) | 19 µM (inactive) | 27.4 µM (inactive) | 
2 | [O-]/[N+](=C\c1ccccc1)[C@H](COCc1ccccc1)c1ccccc1 | 36 µM (inactive) | > 100 µM (inactive) | > 100 µM (inactive) | 30.2 µM (inactive) | > 100 µM (inactive) |  |  | > 100 µM (inactive) | 50.6 µM (inactive) | 24.2 µM (inactive) | > 100 µM (inactive) | > 100 µM (inactive) | 48.9 µM (inactive) | 80.9 µM (inactive) | > 100 µM (inactive) |  | > 100 µM (inactive) | 
3 | Cc1ccc(Nc2nc(C)c(C(/C=C/c3ccc4c(c3)OCO4)=N/Nc3ccc([N+](=O)[O-])cc3[N+](=O)[O-])s2)c([N+](=O)[O-])c1 | 65 µM (inactive) | 16.3 µM (inactive) | 70.3 µM (inactive) |  | 62.7 µM (inactive) | 3.59 µM (inactive) | 25.8 | > 100 µM (inactive) | 28.2 µM (inactive) | 21.8 µM (inactive) | 28.6 µM (inactive) | 37.8 µM (inactive) | 14.3 µM (inactive) | 49.2 µM (inactive) | 53 µM (inactive) | 56.6 µM (inactive) | 43.9 µM (inactive) | 24.4 µM (inactive)
4 | NCc1c(C(N)=O)ncn1Cc1ccccc1 | > 100 µM (inactive) | > 100 µM (inactive) | > 100 µM (inactive) | > 100 µM (inactive) | > 100 µM (inactive) | > 100 µM (inactive) | > 100 | > 100 µM (inactive) | > 100 µM (inactive) |  | > 100 µM (inactive) | > 100 µM (inactive) | > 100 µM (inactive) | > 100 µM (inactive) | > 100 µM (inactive) | > 100 µM (inactive) |  | 
5 | Nc1ccc(C(=O)N/C(=C\c2ccc3c(c2)OCO3)c2nc3ccc4c(c3[nH]2)C(=O)c2ccccc2C4=O)cc1 | 41.7 µM (inactive) | 26.1 µM (inactive) | 29.6 µM (inactive) | 3.68 µM (inactive) | 17.5 µM (inactive) | 33.7 µM (inactive) | 42.2 | 33.1 µM (inactive) | 2.26 µM (inactive) | 2.64 µM (inactive) | 43.3 µM (inactive) | 23.1 µM (inactive) | 25.5 µM (inactive) | 33 µM (inactive) | 58.7 µM (inactive) | 50.5 µM (inactive) | > 100 µM (inactive) | 
6 | N#CC(/C(CCCC(=O)Nc1cccc([N+](=O)[O-])c1)=N\NC(=O)c1c(O)ccc2ccccc12)c1nc2ccccc2s1 (centres undefined) | 28.6 µM (inactive) |  | 18.5 µM (inactive) |  | 13.3 µM (inactive) |  |  | 21.5 µM (inactive) | 5.35 µM (inactive) | 14.3 µM (inactive) |  |  | 7.89 µM (inactive) | 16.3 µM (inactive) | 35.5 µM (inactive) | 24.3 µM (inactive) | 37.7 µM (inactive) | 17.5 µM (inactive)
7 | Cc1ccc(C(=O)Nc2ccccc2)cc1/N=N/N(C)C | > 100 µM (inactive) | > 100 µM (inactive) | > 100 µM (inactive) |  | > 100 µM (inactive) | > 100 µM (inactive) | > 100 | > 100 µM (inactive) |  | > 100 µM (inactive) | > 100 µM (inactive) | > 100 µM (inactive) |  | > 100 µM (inactive) | > 100 µM (inactive) | > 100 µM (inactive) |  | 
8 | CCC(=O)OC[n+]1ccc2c(C)c3[nH]c4ccc(OC)cc4c3c(C)c2c1 | 0.0738 µM (active) | 0.0927 µM (active) | 0.0755 µM (active) | 0.182 µM (active) | 0.048 µM (active) |  |  | 0.759 µM (active) | 0.0685 µM (active) |  |  | 0.94 µM (active) | 0.132 µM (active) | 0.0547 µM (active) | 0.7 µM (active) | 0.0865 µM (active) | 0.299 µM (active) | 0.0134 µM (active)
9 | COC(=O)C1N=CSCC1(C)O (centres undefined) | > 100 µM (inactive) | > 100 µM (inactive) | > 100 µM (inactive) | > 100 µM (inactive) | > 100 µM (inactive) | > 100 µM (inactive) | > 100 | > 100 µM (inactive) | > 100 µM (inactive) | > 100 µM (inactive) | > 100 µM (inactive) | > 100 µM (inactive) | > 100 µM (inactive) |  | > 100 µM (inactive) | > 100 µM (inactive) | > 100 µM (inactive) | 
10 | O=C(/C=C\c1cccc2ccccc12)c1ccc(Cl)cc1Cl | 20.5 µM (inactive) |  | 18.7 µM (inactive) | 18 µM (inactive) | 39.7 µM (inactive) | 16.7 µM (inactive) | 13.7 | 18.5 µM (inactive) | 17.3 µM (inactive) | 53 µM (inactive) | 32.4 µM (inactive) | 97.1 µM (inactive) | 18.9 µM (inactive) | 16.4 µM (inactive) | 27 µM (inactive) | 43.6 µM (inactive) | 24.4 µM (inactive) | 
11 | CCN(C(C)=N)c1ccccc1 | 43.5 µM (inactive) | > 100 µM (inactive) | > 100 µM (inactive) | 27 µM (inactive) | > 100 µM (inactive) | > 100 µM (inactive) | > 100 | 68.4 µM (inactive) | > 100 µM (inactive) | 39 µM (inactive) | > 100 µM (inactive) | > 100 µM (inactive) | 43.6 µM (inactive) | > 100 µM (inactive) | 17.2 µM (inactive) | 66.8 µM (inactive) | > 100 µM (inactive) | 
12 | O=C(Nc1ccccc1)c1ccc(Cl)c([N+](=O)[O-])c1 | 15.3 µM (inactive) | 4.46 µM (inactive) | 9.33 µM (inactive) | 3.88 µM (inactive) | 14.8 µM (inactive) | 6.68 µM (inactive) | 7.24 | 22.4 µM (inactive) | 4.14 µM (inactive) | 36.1 µM (inactive) |  | 29.3 µM (inactive) | 2.96 µM (inactive) | 19.5 µM (inactive) | 15.4 µM (inactive) |  |  | 
13 | COc1ccc(/C=C/C(=O)C(C)(C)CN2CCCCC2)cc1 | 38.1 µM (inactive) | 14.9 µM (inactive) | 19 µM (inactive) | 18.2 µM (inactive) | 26.2 µM (inactive) | 24.7 µM (inactive) | 16.3 | 24.2 µM (inactive) | 24.2 µM (inactive) | 17.7 µM (inactive) | 18.3 µM (inactive) | 20.8 µM (inactive) | 24.2 µM (inactive) | 15.4 µM (inactive) | 17.4 µM (inactive) | 7.36 µM (inactive) | 33.7 µM (inactive) | 
14 | CC1OC(n2ccc3ccc([N+](=O)[O-])cc32)C(O)C(O)C1O (centres undefined) | > 100 µM (inactive) | > 100 µM (inactive) | > 100 µM (inactive) | > 100 µM (inactive) | > 100 µM (inactive) | > 100 µM (inactive) | > 100 | > 100 µM (inactive) | > 100 µM (inactive) | > 100 µM (inactive) |  | > 100 µM (inactive) | > 100 µM (inactive) | > 100 µM (inactive) | > 100 µM (inactive) | > 100 µM (inactive) | > 100 µM (inactive) | > 100 µM (inactive)
15 | CC(=O)NNc1nc(C)c(C(/C=C/c2ccc(Cl)cc2)=N/NC(=O)C[N+](C)(C)C)s1 | > 100 µM (inactive) | > 100 µM (inactive) |  |  | > 100 µM (inactive) | > 100 µM (inactive) | > 100 | > 100 µM (inactive) | > 100 µM (inactive) | > 100 µM (inactive) | > 100 µM (inactive) | > 100 µM (inactive) | > 100 µM (inactive) |  | > 100 µM (inactive) | > 100 µM (inactive) | > 100 µM (inactive) | 
16 | CC(=O)N(C)c1ccc2c(ccc[n+]2[O-])c1[N+](=O)[O-] | > 100 µM (inactive) | > 100 µM (inactive) | > 100 µM (inactive) | > 100 µM (inactive) | > 100 µM (inactive) | > 100 µM (inactive) | > 100 | > 100 µM (inactive) | > 100 µM (inactive) | > 100 µM (inactive) | > 100 µM (inactive) | > 100 µM (inactive) | > 100 µM (inactive) | > 100 µM (inactive) | > 100 µM (inactive) | > 100 µM (inactive) | > 100 µM (inactive) | 
17 | O=[N+]([O-])c1nccn1CC(O)c1ccccc1 (centres undefined) | > 100 µM (inactive) | > 100 µM (inactive) | > 100 µM (inactive) | > 100 µM (inactive) | > 100 µM (inactive) | > 100 µM (inactive) | > 100 | > 100 µM (inactive) | > 100 µM (inactive) | > 100 µM (inactive) |  | > 100 µM (inactive) | > 100 µM (inactive) | > 100 µM (inactive) | > 100 µM (inactive) | > 100 µM (inactive) | > 100 µM (inactive) | 
18 | C[C@]12CCC3[C@@H](CC[C@@H]4c5nonc5CC[C@]34C)C1CCC(=O)N2 (some centres undefined) | > 100 µM (inactive) | > 100 µM (inactive) | > 100 µM (inactive) | 67.9 µM (inactive) | > 100 µM (inactive) | > 100 µM (inactive) | > 100 | > 100 µM (inactive) | > 100 µM (inactive) | > 100 µM (inactive) |  | > 100 µM (inactive) | > 100 µM (inactive) | > 100 µM (inactive) | > 100 µM (inactive) | > 100 µM (inactive) | > 100 µM (inactive) | 
